Results as given in ChEMBL document CHEMBL1155145, “Calcineurin inhibition or mutation enhances cell wall inhibitors against Aspergillus fumigatus” (2007).
Calls of active or inactive are those of the source. No cut-off for these calls is given here.

Columns and labels:
Aspergillus fumigatus [1] = assay: Antifungal activity against Aspergillus fumigatus assessed as induction of stunted hyphal tips at 20 ng/ml after 6 hrs; format: functional, organism-based
Aspergillus fumigatus [2] = assay: Antifungal activity against Aspergillus fumigatus ungerminated conidia assessed as delay in germ-tube extension at 20 ng/ml after 60 hrs of fungal growth; format: functional, organism-based
Aspergillus fumigatus [3] = assay: Decrease in 1,3-beta-D-glucan level in Aspergillus fumigatus assessed as relative fluorescence units at 20 ng/ml by aniline blue fluorescence assay; format: functional
Aspergillus fumigatus [4] = assay: Effect on cellular morphology of Aspergillus fumigatus assessed as induction hyphal tips blunting at 20 ng/ml; format: functional, organism-based
Aspergillus fumigatus [5] = assay: Effect on cellular morphology of Aspergillus fumigatus expressing delta-cnaA mutant assessed as induction hyphal tips blunting at 20 ng/ml; format: functional, organism-based
Aspergillus fumigatus [6] = assay: Antifungal activity against Aspergillus fumigatus assessed as inhibition of hyphal growth at 20 ng/ml by radial growth assay; format: functional, organism-based
Aspergillus fumigatus [7] = assay: Decrease in 1,3-beta-D-glucan level in Aspergillus fumigatus assessed as relative fluorescence units at 1 ug/ml by aniline blue fluorescence assay; format: functional
Aspergillus fumigatus [8] = assay: Decrease in 1,3-beta-D-glucan level in Aspergillus fumigatus expressing delta-cnaA mutant assessed as relative fluorescence units at 1 ug/ml by aniline blue fluorescence assay; format: functional
Aspergillus fumigatus [9] = assay: Antifungal activity against Aspergillus fumigatus expressing delta-cnaA mutant assessed as dead microbial cells at 1 ug/ml by trimethine oxonol staining; format: functional
Aspergillus fumigatus [10] = assay: Antifungal activity against Aspergillus fumigatus assessed as inhibition of hyphal growth at 1 ug/ml by radial growth assay; format: functional, organism-based
Aspergillus fumigatus [11] = assay: Antifungal activity against Aspergillus fumigatus assessed as induction of balloon-like of hyphal apical tips at 32 ug/ml after 48 hrs; format: functional, organism-based

C=CC[C@@H]1/C=C(\C)C[C@H](C)C[C@H](OC)[C@H]2O[C@@](O)(C(=O)C(=O)N3CCCC[C@H]3C(=O)O[C@H](/C(C)=C/[C@@H]3CC[C@@H](O)[C@H](OC)C3)[C@H](C)[C@@H](O)CC1=O)[C@H](C)C[C@@H]2OC [TACROLIMUS ANHYDROUS]
Activity (Aspergillus fumigatus [1]): Dose-dependent effect | Activity (Aspergillus fumigatus [2]): Dose-dependent effect | RFU (Aspergillus fumigatus [3]): 2.909 | Activity (Aspergillus fumigatus [4]): Active | Activity (Aspergillus fumigatus [5]): Active | Activity (Aspergillus fumigatus [6]): Active

CC[C@H](C)C[C@H](C)CCCCCCCCC(=O)N[C@H]1C[C@@H](O)[C@@H](NCCN)NC(=O)[C@@H]2[C@@H](O)CCN2C(=O)[C@H]([C@H](O)CCN)NC(=O)[C@H]([C@H](O)[C@@H](O)c2ccc(O)cc2)NC(=O)[C@@H]2C[C@@H](O)CN2C(=O)[C@H]([C@@H](C)O)NC1=O [CASPOFUNGIN]
RFU (Aspergillus fumigatus [7]): 6.187 | RFU (Aspergillus fumigatus [8]): 1.086 | Activity (Aspergillus fumigatus [9]): 15% | Activity (Aspergillus fumigatus [10]): Active

C[C@@H]([C@H](N)C(=O)N[C@H](C(=O)O)[C@H]1O[C@@H](n2ccc(=O)[nH]c2=O)[C@H](O)[C@@H]1O)[C@H](O)c1ccc(O)cn1
Activity (Aspergillus fumigatus [11]): Active
